Source: patent US12139556B2, “Insect neuropeptides 6” (Solasta Bio Limited, priority 2022, dated 2024)

Legend:
Assay type in all cases: in vivo
Myzus persicae [1] = test: Leaf dip assay (IRAC susceptibility test method 019), mortality assessment; conditions: unformulated or with Silwet-408 adjuvant; mortality assessed at 72, 96 and 120 hours; FIGS. 6-8
Procedure: The assay was carried out based on IRAC susceptibility test method 019 (irac-online.org/methods/aphids-adultnymphs/).
Fill a small 4 cm wide 3 cm high dish with a 1% agar treatment solution of the active chemical or control (ensuring 1 cm gap between the agar and the lid) and leave to set. Dip a 2.5 cm leaf disc into 3 ml of treatment solution allowing the treatment to coat the leaf. Leave the disc to dry for 1 hour and place onto the set agar. Place insects (M. persicae aphids) onto each of the leaf discs. Each unit is sealed with a close-fitting, ventilated lid. Place the agar dishes in a small plastic tray lined with moist tissue paper and ensure the water trays in the bottom of the incubator are filled with clean water and place within the incubator. An assessment of mortality is made at 72, 96 and 120 hours. Leaf dip assays were performed with SB-P-65, and compared to a negative control vehicle and a current commercial insecticide Spirotetramat. The activity of SB-P-65 is shown in FIGS. 6-8; SB-P-65 has good activity whilst being eco-friendly and targeted to specific pests unlike broad spectrum chemical insecticides such as Spirotetramat.

bees = test: Bee oral toxicity test adapted from OECD Test No. 247 (Bumblebee, Acute Oral Toxicity Test); conditions: % survival after 96 hours of application; FIG. 10
Procedure: Bee oral testing protocol was carried out adapted from OECD Test No. 247: Bumblebee, Acute Oral Toxicity Test. The toxicity of SB-P-65 was compared with a negative control of sucrose or vehicle, and with a current commercial insecticide Imidacloprid.

Aphis fabae = test: Field trials (PGRO) on vining peas, naturally infested
Procedure: (§1) Field trials for peptide SB-P-65, unformulated, against various insects were conducted by third-party organisations PGRO and AgriScience.

Myzus persicae [2] = test: Field trials by third-party organisations
Procedure: as §1

Aphis gossypii = test: Field trials (AgriScience) on cotton and melon, naturally infested
Procedure: as §1

[3] = versus Stealth/Aphox, Teppeki/Aphox, Profil Extra, Hallmark Zeon

CC(C)[C@H](NC(=O)[C@@H](NC(=O)[C@H](CCCCN)NC(=O)[C@H](CCC(N)=O)NC(=O)[C@@H](N)CCCNC(=N)N)[C@@H](C)O)C(=O)N[C@@H](Cc1ccccc1)C(=O)N[C@@H](CO)C(=O)N[C@@H](CO)C(=O)N[C@@H](Cc1c[nH]c2ccccc12)C(=O)NCC(N)=O [SB-P-65, [Hy]-RQKTVFSSWG-[NH2]]
activity against Myzus persicae (mortality) in leaf dip assay (Myzus persicae [1]): good activity
toxicity to bees (oral), compared to Imidacloprid (bees): far lower toxicity
efficacy in field trials against Aphis fabae (Aphis fabae; unformulated, vining peas, real-world conditions, FIGS. 11, 14): good efficacy
efficacy relative to commercial insecticides, Aphis fabae field trials (Aphis fabae; [3]): comparably to commercial insecticides
efficacy in field trials against Myzus persicae (Myzus persicae [2]; unformulated, real-world conditions): good efficacy
efficacy relative to commercial insecticides, Myzus persicae field trials (Myzus persicae [2]; [3]): comparably to commercial insecticides
efficacy in field trials against Aphis gossypii (Aphis gossypii; unformulated, cotton, melon, real-world conditions, FIGS. 12, 13): good efficacy
efficacy relative to commercial insecticides, Aphis gossypii field trials (Aphis gossypii; [3]): comparably to commercial insecticides
